The text below walks through data of ChEMBL document CHEMBL1157539, “Thousands of chemical starting points for antimalarial lead identification” (Nature, 2010).

The test concerns Plasmodium falciparum. The experiment in a line: GSK_TCMDC: Inhibition of Plasmodium falciparum 3D7 in whole erythrocytes, using parasite LDH activity as an index of growth. It is filed as functional, organism-based. Particulars: Plasmodium falciparum, 3D7.

Residues, ends and D or L forms follow the SMILES beside them. *: point of attachment. Boc = CC(C)(C)OC(=O)*

In turn, `CC(C)CN1C(=O)c2ccc(C(=O)Nc3nccs3)cc2C1=O` had an XC50 of 971 nM.

As for `CNCCNCc1ccc(-c2ccc(-c3nc4cccc(C)c4[nH]3)cc2)cc1`, the XC50 was found to be 670 nM.

`COc1cccc(C(=O)C2CC2CN2CC=C(c3c[nH]c4ccc(OC)nc34)CC2)c1` (configuration not stated) returned an XC50 of 526 nM.

`Cc1ccccc1C1CCN(C2CCC(NC(=O)c3cc(-c4ccccc4)oc3C)CC2)CC1` (configuration not stated): the XC50 was 1030 nM.

Take `Cc1cccc(NC(=O)c2cnc(N3CCN(c4ccncc4)CC3)c(Cl)c2)c1`: the XC50 was 678 nM.

The molecule `COc1cccc(C(=O)Nc2nonc2-c2ccc(OC)c(OC)c2)c1` displayed an XC50 of 801 nM.

`CC(=O)Nc1ccc(CN2CCC(N(C)c3cc(NC(=O)c4ccc(F)cc4)ccn3)CC2)cc1` had an XC50 of 1120 nM.

`O=S(=O)(NCCN1CCCC1)c1ccc(-c2ccc(CNCc3ccccc3)cc2)s1` registered an XC50 of 849 nM.

Consider `O=C(NC1CCC(CN2CCC(c3c[nH]c4ccccc34)CC2)CC1)c1ccc(-c2cc(C(F)(F)F)ccc2Cl)o1` (configuration not stated), for which the XC50 is 714 nM.

As for `Cc1ccc(S(=O)(=O)N2CCCN(C(=O)c3cc(-c4ccccc4)[nH]n3)CC2)cc1`, the XC50 is 84.3 nM.

In turn, `O=C(Nc1ccc2c(c1)CN(Cc1ccc(N3CCCC3)o1)CCC2)c1ccoc1` gave an XC50 of 953 nM.

The molecule `COc1ccc(-c2nc3c(NCc4ccccc4)nccc3[nH]2)c(OC)c1` returned an XC50 of 778 nM.

`COc1cccc(C(=O)N2CCOC(CCN3CCC(c4ccccc4)CC3)(c3ccc(Cl)c(Cl)c3)C2)c1` (configuration not stated) had an XC50 of 505 nM.

As to `CCN1CCC(NCc2ccc(-c3ccc(Cl)cc3)cc2)CC1`, the XC50 worked out at 1020 nM.

On to `Cc1ccc(CNC(=O)[C@H](CCCN)Nc2cc(C)nc(NCC3CCCCC3)n2)cc1`, for which the XC50 was 1220 nM.

`NS(=O)(=O)c1cccc(Nc2nccc(-c3c(-c4cccc(NC(=O)c5c(F)cccc5F)c4)nn4ccccc34)n2)c1` showed an XC50 of 73.6 nM.

Turning to `CN(C)Cc1ccc(-c2cc3ncnc(Nc4ccc(OCc5cccc(F)c5)c(Cl)c4)c3s2)[nH]1`, the XC50 worked out at 174 nM.

Take `CC(C)(C)c1nn(-c2ccccc2)c2[nH]c(=O)c(CNC3CCCC3)cc12`: the XC50 came out at 850 nM.

In the case of `COc1cc2nc(NCC3CCN(C(=O)c4ccc(-c5ccc(C(=O)N(C)C)cc5C)cc4)CC3)nc(N)c2cc1OC`, the XC50 worked out at 948 nM.

`CN1CCC(OC(=O)c2cc3cc(-c4ccccc4)ccc3n2S(=O)(=O)c2ccccc2)CC1` returned an XC50 of 1090 nM.

In the case of `Cc1ccc(Nc2nnc(SCC(=O)Nc3ccc(CN4CCCC4)cc3)s2)cc1`, the XC50 turned out to be 1210 nM.

As to `Cc1nc(N/C=C/c2ccc(O)cc2)cc(N2CCCC2)n1`, the XC50 came out at 1070 nM.

As to `CCOc1cc(C(=O)NC2CCN(Cc3ccccc3)CC2)ccc1-c1nc2cc(Cl)c(Cl)cc2[nH]1`, the XC50 was determined as 469 nM.

For the molecule `Clc1cccc(C=NN=c2cc[nH]c3ccccc23)c1`, the XC50 was determined as 852 nM.

As for `C[C@H](Cc1ccc(OCCCCCCOc2ccc(C[C@@H](C)NC(=O)[C@H](O)c3cccc(Cl)c3)cc2)cc1)NC[C@H](O)c1cccc(Cl)c1`, the XC50 came out at 381 nM.

Take `CCOC(=O)CNCC(=O)c1ccc(OCc2ccccc2)cc1`: the XC50 worked out at 161 nM.

In turn, `CSc1nc2nc(C)c(Cc3cccc(C(F)(F)F)c3)c(C)n2n1` displayed an XC50 of 193 nM.

Turning to `c1ccc(CN2CCC(NCc3ccc(-c4cccc(CNC5CCCC5)c4)cc3)CC2)cc1`, the XC50 amounted to 339 nM.

Regarding `CCCCN1CCN(CC(O)CNC(=O)Nc2ccc(Cl)cc2)CC1` (configuration not stated), the XC50 worked out at 68.5 nM.

Take `CN(C)CCCOc1ccccc1CN1CC[C@H](NC(=O)c2ccc(Cl)c(Cl)c2)C1`: the XC50 is 1110 nM.

As for `Cc1cc(CN2CCCC(OC(c3ccc(F)cc3)c3ccc(F)cc3)C2)ccc1O` (configuration not stated), the XC50 stood at 883 nM.

`Nc1nc(N)c2cc(NS(=O)(=O)c3ccc(-c4ccccc4)cc3)ccc2n1`: the XC50 is 699 nM.

The molecule `Cc1cc(N2CCC(C)CC2)nc2cc(O)ccc12` gave an XC50 of 1180 nM.

As for `CCCCCCNC(=O)C1Cc2c([nH]c3ccc(Br)cc23)C2(CCN(Cc3ccccc3)CC2)N1` (configuration not stated), the XC50 worked out at 722 nM.

`O=C(NCCCCN1CCC(c2ccc3c(c2OC(=O)c2ccc(NC(=O)c4ccc(Cl)cc4)cc2)CCCC3)CC1)c1ccc(NC(=O)c2ccc(Cl)cc2)cc1` displayed an XC50 of 203 nM.

In turn, `O=C(Nc1ccc(-c2nc3ccccc3[nH]2)cc1)c1ccc(S(=O)(=O)N2CCc3ccccc32)cc1` came in with an XC50 of 741 nM.

Molecule `COc1ccccc1CC(C)NCC(O)c1cccc(Cl)c1` (configuration not stated) yielded an XC50 of 811 nM.

`Cc1cc(N[C@@H](CC(C)C)C(=O)NCCc2ccccc2)nc(NCCc2ccc(F)cc2)n1` had an XC50 of 771 nM.

Molecule `COc1ccc(NC(=S)NC(NC(=O)CF)C(Cl)(Cl)Cl)cc1[N+](=O)[O-]` (configuration not stated) came in with an XC50 of 479 nM.

`O=C(Nc1ccc(-c2cccc(-c3nc4cc(C(F)(F)F)ccc4[nH]3)c2)cc1)c1cccnc1` had an XC50 of 725 nM.

With `CCCNC(=O)c1cncc(-c2cccc(CNC3Cc4ccccc4C3)c2)c1`, the XC50 stood at 803 nM.

`COc1ccc2nc3cc(Cl)ccc3c(NCCN3CCN(C)CC3)c2c1` returned an XC50 of 124 nM.

In turn, `O=c1[nH]c2ccc(Nc3nccc(NCCc4ccccc4)n3)cc2[nH]1` displayed an XC50 of 1210 nM.

As to `CCN(CC)CCCC(C)N=c1cc(C=Cc2ccccc2Cl)[nH]c2cc(Cl)ccc12` (configuration not stated), the XC50 amounted to 805 nM.

`CCCc1cc(Cc2cnc(N)nc2N)cc(CC)c1O` gave an XC50 of 1320 nM.

`COC(=O)CC[C@H](NC(=O)[C@H](C)NC(=O)OC(C)(C)C)C(=O)OC` (Boc-Ala-Glu(OMe)-OMe): the XC50 stood at 819 nM.

`Cc1ccc(O)cc1Nc1ccnc2ccc(C(C)(C)C)cc12` registered an XC50 of 1250 nM.

`CCNc1cc(C)nc(Nc2ccc(NC(=O)c3ccccc3Cl)cc2)n1` registered an XC50 of 1010 nM.

`FC(F)(F)c1ccc2[nH]c(-c3ccc(-c4ccc(CNCc5cnn(-c6ccccc6)n5)cc4)cc3)nc2c1` yielded an XC50 of 433 nM.

For `Cc1cc2nc(-c3ccc(C(=O)NC4CCN(Cc5ccccc5)CC4)cc3)[nH]c2cc1C`, the XC50 came to 743 nM.

Consider `CC(=O)Nc1ccc(CN2CCCN(c3cc(NC(=O)c4cccc(C)c4)ccn3)CC2)cc1`, for which the XC50 amounted to 863 nM.

In turn, `Nc1nc2ccc(S(=O)(=O)Nc3ccc(C(=O)N[C@@H](CCC(=O)O)C(=O)O)c(F)c3)cc2c(=O)[nH]1` yielded an XC50 of 824 nM.

Take `CC(C)CNCc1ccc(-c2ccc(CN(CCCN3CCN(C)CC3)C(=O)CCC3CCCC3)cc2)cc1`: the XC50 was determined as 1060 nM.

For `CC1(C)NC(N)=NC(=N)N1OCCSc1ccccc1`, the XC50 is 3.2 nM.

`C(=N\Nc1nccc2sc(-c3cccnc3)cc12)/c1cccnc1` had an XC50 of 423 nM.

On to `Clc1ccc(CNc2ccnc(NCc3cccnc3N3CCCC3)n2)c(Cl)c1`, for which the XC50 turned out to be 1170 nM.

In turn, `COc1cccc(CCNCCCCCCNCCc2ccc(Cl)cc2)c1` came in with an XC50 of 1010 nM.

Take `N#Cc1cccc(NC(=O)Nc2cccc(OC3CCN(Cc4ccccc4)CC3)c2)c1`: the XC50 was found to be 841 nM.

Molecule `O=C(/C=C/c1ccc(Cl)c(Cl)c1)N1CCC(CCN2CCC(c3c[nH]c4cnccc34)CC2)CC1` gave an XC50 of 119 nM.

In turn, `O=C(/C=C/c1ccc(Cl)c(Cl)c1)N(Cc1ccccc1)C1CCC(CN2CCC(c3c[nH]c4ccccc34)CC2)CC1` (configuration not stated) displayed an XC50 of 209 nM.

Molecule `COc1cc2nc(N(C)Cc3cc4c(Cl)cccc4s3)nc(N)c2cc1OC` returned an XC50 of 953 nM.

In the case of `COc1c(F)ccc2ncc(Cl)c(CCN3CCC(NCc4ccc5c(n4)NC(=O)CS5)CC3)c12`, the XC50 is 544 nM.

The molecule `CC(CN1CCN(C)CC1)C(=O)Nc1ccc(-c2csc(-c3nc4ccccc4[nH]3)c2)cc1` (configuration not stated) yielded an XC50 of 837 nM.

`O=C(/C=C/c1ccc(Cl)c(Cl)c1)NCCCCCN1CCC(NC(=O)Nc2cccc(Cl)c2Cl)CC1` came in with an XC50 of 667 nM.

Take `Nc1nc(N)c2c(ccc3c2ccn3C2CCCCC2)n1`: the XC50 was 123 nM.

For `CC(=O)Nc1ncc(C(=O)Nc2cccc(-c3ccc(-c4nc5cc(C(F)(F)F)ccc5[nH]4)s3)c2)s1`, the XC50 worked out at 398 nM.

On to `Clc1ccc(-c2cc(-c3csc(Nc4ccncc4)n3)on2)cc1`, for which the XC50 turned out to be 133 nM.

`CC(C)(C)[C@@H](Nc1ccc(C#N)c2ccccc12)C(=O)NC1(Cc2ccc(O)cc2)CCCC1` yielded an XC50 of 1440 nM.

`Cc1cccc2nc(-c3cccc(-c4cccc(C(=O)N5CCCCC5CN5CCC(O)C5)c4)c3)[nH]c12` (configuration not stated) yielded an XC50 of 463 nM.

As for `Oc1c(Br)cc2oc3c(c2c1CNCc1ccccc1)CCCC3`, the XC50 worked out at 961 nM.

`COc1ccccc1CN1CCC(NC(=O)c2ccc(-c3cccc(C(F)(F)F)c3)s2)CC1` showed an XC50 of 1310 nM.

Take `CC1(C)N=C(N)N=C(N)N1OCc1cc2ccccc2cc1CON1C(N)=NC(N)=NC1(C)C`: the XC50 came to 126 nM.

For `O=C(C=Cc1ccc(Cl)c(Cl)c1)NCCCCCN1CCCC(CCCNS(=O)(=O)c2cccc3cccnc23)C1` (configuration not stated), the XC50 turned out to be 1000 nM.

For `CS(=O)(=O)Nc1ccc2[nH]cc(C3CCN(CC4CCN(C(=O)/C=C/c5ccc(Cl)c(Cl)c5)CC4)CC3)c2c1`, the XC50 is 716 nM.

`CCc1cn(C)c2c(N3CCCC3=O)cc(C(=O)N[C@@H](Cc3ccccc3)[C@H](O)CNC(C)(C)c3cccc(OC)c3)cc12` came in with an XC50 of 36 nM.

As for `COc1ccccc1Cn1ccnc1SCC(=O)Nc1cccc(C(F)(F)F)c1`, the XC50 was 907 nM.

`CC(C)c1ccc(CN2CCC(NC(=O)c3ccc(-c4ccccc4F)s3)CC2)cc1` registered an XC50 of 1550 nM.

Regarding `CC[C@H]1CN2CC[C@H]1C[C@H]2[C@@H](O)c1cc(OCCCN(C)C)nc2ccc(OC)cc12`, the XC50 came out at 132 nM.

Molecule `COCCn1c(Sc2ncnc3sccc23)nc2ccccc21` came in with an XC50 of 879 nM.

`CN(C)CCC(=O)c1ccccc1` yielded an XC50 of 335 nM.

Take `COc1ccccc1CC1CCCN(C2CCC(NC(=O)c3cc4ccccc4[nH]3)CC2)C1` (configuration not stated): the XC50 was 842 nM.

`CC[C@H]1CN2CC[C@H]1C[C@H]2[C@H](O)c1cc(-c2ccccc2C)nc2ccc(OC)cc12` gave an XC50 of 195 nM.

Take `CN(C)CCCOc1cccc(CCNCc2cccc(Oc3ccc(Cl)cc3)c2)c1`: the XC50 was determined as 1010 nM.

`CC(Cl)=CCc1c(C)nc2c(ccc3ccccc32)c1O` registered an XC50 of 198 nM.

With `O=C(NCCCCCCNCc1ccc(-c2ccccc2)cc1)Nc1ccc(Cl)c(Cl)c1`, the XC50 amounted to 962 nM.

Regarding `COc1cccc(C(=O)Nc2ccc(Oc3ccc(Cl)cc3)cc2)c1`, the XC50 came out at 956 nM.

The molecule `NC1=NC2(CCCC2)N(c2ccc(Cl)cc2)C(N)=N1` returned an XC50 of 414 nM.
